According to PMC12126525, “Mechanism of ATP hydrolysis in the Hsp70 BiP nucleotide-binding domain” (Nature Communications, 2025):
Values joined by “and” are separate entries in the source; they are usually repeats but may differ in a detail not shown here. Equal values may be shown once. Read-outs that look alike come from different tables or passages of the source.

Experiments:
BiP NBD [1] = biological target: T1, BiP NBD (Homo sapiens, UniProt P11021); experiment: NMR experiment with MABA-ATP (no E1, no E2) and kinetic fit of the MABA-ATP/MABA-ADP functional cycle; type: biochemical; set-up: His6 (N, cleaved yes); made in house; host or cells: E. coli BL21-(DE3)-Lemo, pET28a vector; conditions: for koff / kon / Kd: MABA-ATP instead of ATP; for Kd: T = 37°C; for species: Supplementary Fig 13b
Experimental: […] After the equilibration time 2D [^13C,^1H]-HMQC spectra were recorded in interleaved mode with 1D ^1H NMR spectra. […] The same setup was used for the alternative experiments by including or excluding E1 and/or E2. When E1 was not included, the ratio of the ATP/ADP NMR signals was used to monitor their relative concentrations.
(1 picture or pasted object on this page, not shown here)

BiP NBD [2] = biological target: T1, BiP NBD; experiment: In-cyclo NMR with ATP regeneration (E1) and phosphate removal (E2): hydrolysis rate, state populations, occupancy times; type: biochemical; set-up: His6 (N, cleaved yes); made in house; host or cells: E. coli BL21-(DE3)-Lemo, pET28a vector; conditions: for khydr: Fig 3 f source data: replicates [1]-[3] and average; for cycle timing: Fig 4f source data: replicates [1]-[3] and average
Excerpt: In order to create a stable steady-state condition, we implemented two enzymatic systems inside the NMR tube to convert ADP into ATP and to remove the free phosphate, respectively. The first enzyme (E1) is pyruvate kinase, at catalytic amounts, which combines phosphoenol pyruvate (PEP) and ADP to form ATP (Fig. 3a). […] The second enzyme (E2) is sucrose phosphorylase, at catalytic amounts, which catalyzes the conversion of sucrose and phosphate into α-D-glucose-1-phosphate and D-fructose. […] To distinguish this experiment from equilibrium experiments, and highlight the unique setup to control ATP, ADP and Pi levels simultaneously, we refer to this setup as the “in-cyclo” NMR experiment.
We then set out to determine the kinetic parameters of the functional cycle. The NMR signal intensities of each of the three detected states are proportional to their population in the steady state. We integrated 51 non-overlapping independent methyl groups to obtain the population ratio pDtotal/pT, including 7 non-overlapping independent methyl groups to obtain the subpopulation ratio pD·Pi/pD.
The macroscopic hydrolysis rate khydr is experimentally determined from monitoring the pyruvate production. From there, the reaction flux f of the functional cycle results as19 f=khydrNBD0 The inverse of the hydrolysis rate is the average length of the functional cycle T.20 T=khydr−1 The flux is maintained along the cycle, resulting in the equations21 f=kcatNBD^ATP 22 f=koff4+koff5⋅NBD^ADP⋅Pi 23 f=koff2NBD^ADP+koff3NBD^Pi 24 f=kon1NBD^apoATP−koff1NBD^ATP 25 koff2NBD^ADP=koff4NBD^ADP⋅Pi
All in-cyclo NMR experiments were recorded with BiP NBD samples [U-^2H, ^15N, ^12C], Met-[^13CH3]^ε, Val-[^13CH3/^12C^2H3]^cγ1/cγ2, Ile-[^13CH3]^δ1 in NMR buffer (25 mM HEPES, pH 7.5, 150 mM KCl and 10 mM MgCl2) at a concentration of BiP NBD 100 μM. The in-cyclo ATP regeneration system was composed of 5 units of pyruvate kinase (E1) from rabbit muscle ( ≈ 200 nM; Sigma-Aldrich) and the concentration of phosphoenolpyruvate (PEP- Sigma-Aldrich) was adjusted to maintain the system active for at least four hours ([PEP] = 10–100 mM). The in-cyclo phosphate removal system was composed of 5 units of recombinant sucrose phosphorylase (E2) ( ≈ 500 nM; Sigma-Aldrich) and the concentration of sucrose (Sigma-Aldrich) was adjusted to maintain the system active for at least four hours ([Sucrose] = 10–100 mM). This experimental setup was modified as described in the text by selectively including E1 and/or E2 depending on the purpose of the experiments. All the experiments were recorded at minimum as experimental triplicates.
The in-cyclo experiment was initiated by the addition of 5 mM ATP (Sigma-Aldrich) and allowed to equilibrate at a temperature of 37 °C for 5 min in the NMR spectrometer. After the equilibration time 2D [^13C,^1H]-HMQC spectra were recorded in interleaved mode with 1D ^1H NMR spectra. […] The same setup was used for the alternative experiments by including or excluding E1 and/or E2.

BiP NBD [3] = biological target: T1, BiP NBD; conditions: for tADP: Supplementary Fig 16b
Experimental: We next wanted to compare our determined kinetic rates of ADP dissociation, koff2 and koff5 , with a standard assay in the Hsp70 field that measures ADP lifetimes by ADP displacement.
The dissociation rate constants (koff) were determined by fitting the data to a one phase exponential function using a python script. […]
The red line corresponds to the mono-exponential fit of the data. […]
from 0.001 to 10 mM, in the absence of Pi (pink circles) and with 0.5 mM Pi (blue circles). Data points represent the mean for three independent experiments and the error bar represents the standard deviation. The half maximal inhibitory concentration (IC50) of Ca was calculated from three

T1 sequence (P11021 19-406): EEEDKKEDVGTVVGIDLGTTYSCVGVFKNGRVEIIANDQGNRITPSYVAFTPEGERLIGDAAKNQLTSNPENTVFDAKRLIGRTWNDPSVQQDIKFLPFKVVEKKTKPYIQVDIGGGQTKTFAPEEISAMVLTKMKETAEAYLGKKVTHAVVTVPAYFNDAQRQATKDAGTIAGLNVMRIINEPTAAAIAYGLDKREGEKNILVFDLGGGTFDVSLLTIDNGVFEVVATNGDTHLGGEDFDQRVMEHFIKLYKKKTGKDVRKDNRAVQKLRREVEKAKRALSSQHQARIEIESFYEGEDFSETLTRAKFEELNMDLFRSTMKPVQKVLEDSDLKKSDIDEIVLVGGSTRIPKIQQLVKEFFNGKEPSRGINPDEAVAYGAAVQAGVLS

## O=P(O)(O)O [Pi]
BiP NBD [1]; reactions 1MABA, 2MABA, 3
  koff: 1 ± 0.3 s⁻¹
  kon: 3500 ± 500 M⁻¹ s⁻¹
BiP NBD [1]; reactions 1MABA, 2MABA, 3: release to apo NBD
  Kd: 280 ± 30 µM
BiP NBD [1]; reactions 4MABA, 5MABA
  koff: 0.043 s⁻¹
  kon: 120 ± 20 M⁻¹ s⁻¹
BiP NBD [1]; reactions 4MABA, 5MABA: release from NBD·MABA-ADP·Pi
  Kd: 360 ± 20 µM
BiP NBD [1]; time 4 min
  species: 350 µM
BiP NBD [1]; time 10 min
  species: 508 µM
BiP NBD [1]; time 16 min
  species: 626 µM
BiP NBD [1]; time 22 min
  species: 712 µM
BiP NBD [1]; time 28 min
  species: 800 µM
BiP NBD [1]; time 34 min
  species: 840 µM
BiP NBD [1]; time 40 min
  species: 889 µM
BiP NBD [1]; time 46 min
  species: 907 µM
BiP NBD [1]; time 52 min
  species: 929 µM
BiP NBD [1]; time 58 min
  species: 924 µM
BiP NBD [1]; time 64 min
  species: 932 µM

## Nc1ncnc2c1ncn2[C@@H]1O[C@H](COP(=O)(O)OP(=O)(O)OP(=O)(O)O)[C@@H](O)[C@H]1O [ATP]
BiP NBD [2]; 100 μM BiP NBD, 5 mM ATP, 37 °C
  ATP consumption: 0.15 ± 0.01 mM/min
BiP NBD [2]
  khydr: 1.417 min⁻¹ and 1.507 min⁻¹ and 1.488 min⁻¹
  cycle timing: 42.34 s and 39.82 s and 40.31 s
BiP NBD [2]; mean
  khydr: 1.471 min⁻¹
  cycle timing: 41 s
BiP NBD [2]; from occupancy time of the T state
  catalytic ATP hydrolysis rate kcat = tT^−1: 0.067 s⁻¹
BiP NBD [2]; in-cyclo, no calcium
  average length of the functional cycle T = khydr^−1: 41 ± 2 s
BiP NBD [2]; in-cyclo, no calcium, 37 °C
  macroscopic hydrolysis rate khydr: 1.47 ± 0.05 min⁻¹

## [Ca+2] [calcium]
BiP NBD [3]; Calcium 0.1 μM, second series ([Pi] 0.5 mM)
  tADP: 52.28 s
BiP NBD [3]; Calcium 0.1 μM, series without added Pi
  tADP: 15.3 s
BiP NBD [3]; Calcium 0.5 μM, second series ([Pi] 0.5 mM)
  tADP: 45.66 s
BiP NBD [3]; Calcium 0.5 μM, series without added Pi
  tADP: 12.1 s
BiP NBD [3]; Calcium 1 μM, second series ([Pi] 0.5 mM)
  tADP: 50.78 s
BiP NBD [3]; Calcium 1 μM, series without added Pi
  tADP: 12.7 s
BiP NBD [3]; Calcium 5 μM, second series ([Pi] 0.5 mM)
  tADP: 54.19 s
BiP NBD [3]; Calcium 5 μM, series without added Pi
  tADP: 15.7 s
BiP NBD [3]; Calcium 10 μM, second series ([Pi] 0.5 mM)
  tADP: 50.03 s
BiP NBD [3]; Calcium 10 μM, series without added Pi
  tADP: 12.2 s
BiP NBD [3]; Calcium 25 μM, series without added Pi
  tADP: 16.2 s
BiP NBD [3]; Calcium 50 μM, second series ([Pi] 0.5 mM)
  tADP: 54.42 s
BiP NBD [3]; Calcium 50 μM, series without added Pi
  tADP: 16.2 s
BiP NBD [3]; Calcium 75 μM, series without added Pi
  tADP: 16.9 s
BiP NBD [3]; Calcium 100 μM, second series ([Pi] 0.5 mM)
  tADP: 49.18 s
BiP NBD [3]; Calcium 100 μM, series without added Pi
  tADP: 18.0 s
BiP NBD [3]; Calcium 125 μM, series without added Pi
  tADP: 19.5 s
BiP NBD [3]; Calcium 150 μM, series without added Pi
  tADP: 22.4 s
BiP NBD [3]; Calcium 175 μM, series without added Pi
  tADP: 21.2 s
BiP NBD [3]; Calcium 200 μM, series without added Pi
  tADP: 30.8 s
BiP NBD [3]; Calcium 300 μM, series without added Pi
  tADP: 33.0 s
BiP NBD [3]; Calcium 400 μM, series without added Pi
  tADP: 36.0 s
BiP NBD [3]; Calcium 500 μM, second series ([Pi] 0.5 mM)
  tADP: 44.74 s
BiP NBD [3]; Calcium 500 μM, series without added Pi
  tADP: 38.8 s
BiP NBD [3]; Calcium 1000 μM, second series ([Pi] 0.5 mM)
  tADP: 48.65 s
BiP NBD [3]; Calcium 1000 μM, series without added Pi
  tADP: 39.9 s
BiP NBD [3]; Calcium 5000 μM, second series ([Pi] 0.5 mM)
  tADP: 49.79 s
BiP NBD [3]; Calcium 5000 μM, series without added Pi
  tADP: 41.9 s
BiP NBD [3]; in the presence of 0.5 mM phosphate
  lifetime of bound ADP·Pi versus calcium concentration: completely independent of the calcium concentration
BiP NBD [3]; read-out: IC50 (ADP mean life as a function of calcium concentration), MABA-ADP release, no Pi, fixed 10 mM magnesium, calcium 0.001 to 10 mM
  IC50: 212 ± 7 µM
